# Data taken from ChEMBL document CHEMBL4715829, “Heterodimeric Rifampicin-Tobramycin conjugates break intrinsic resistance of Pseudomonas aeruginosa to doxycycline and chloramphenicol in vitro and in a Galleria mellonella in vivo model” (Eur J Med Chem, 2019).
# Experiments:
# Escherichia coli = assay: Potentiation of chloramphenicol-induced antibacterial activity against Escherichia coli ATCC 25922 assessed as fold change in chloramphenicol MIC at 7.6 uM incubated for 18 hrs in presence of chloramphenicol by broth microdilution assay relative to control; format: functional
# Pseudomonas aeruginosa = assay: Antibacterial activity against Pseudomonas aeruginosa 100036 assessed as potentiation of chloramphenicol-induced antibacterial activity by measuring chloramphenicol MIC at 7.6 uM incubated for 18 hrs in presence of chloramphenicol by broth microdilution assay (reference value: 1024 ug/ml); format: functional
smiles,measurement,setting,value
CO[C@H]1/C=C/O[C@@]2(C)Oc3c(C)c(O)c4c(O)c(c(/C=N/N5CCN(Cc6cn(CCCCCCCCCCCCO[C@@H]7[C@@H](O[C@H]8O[C@H](CO)[C@@H](O)[C@H](N)[C@H]8O)[C@H](N)C[C@H](N)[C@H]7O[C@H]7O[C@H](CN)[C@@H](O)C[C@H]7N)nn6)CC5)c(O)c4c3C2=O)NC(=O)/C(C)=C\C=C\[C@H](C)[C@H](O)[C@@H](C)[C@@H](O)[C@@H](C)[C@H](OC(C)=O)[C@@H]1C.O=C(O)C(F)(F)F.O=C(O)C(F)(F)F.O=C(O)C(F)(F)F.O=C(O)C(F)(F)F.O=C(O)C(F)(F)F,fold change (FC),Escherichia coli,0
same,MIC,Pseudomonas aeruginosa,4 µg/mL
